Data reported in patent US6506772B1, “Substituted [1,2,4]triazolo[1,5a]pyridine derivatives with activity as adenosine receptor ligands” (Hoffmann-La Roche Inc., priority 2000, dated 2003).

Experiments:
[1] = target: T1, human adenosine A2A receptor (Homo sapiens, UniProt P29274); test: Human adenosine A2A receptor [3H]-SCH-58261 binding assay; conditions: for Ki: affinity to human adenosine A2A receptor, read-out: Ki HA2A; for selectivity (A1/A2a): calculated ratio of the affinity to the HA1 receptor to the HA2a receptor
T1 construct: expressed in transfected cells; host or cells: CHO cells, Semliki Forest virus expression system; membrane preparation

HA1 adenosine receptor = target: T2, HA1 adenosine receptor (Homo sapiens, UniProt P30542); test: Human adenosine A1 receptor affinity (Ki hA1); format: binding; conditions: affinity to human adenosine A1 receptor
T2 sequence (P30542 1-326): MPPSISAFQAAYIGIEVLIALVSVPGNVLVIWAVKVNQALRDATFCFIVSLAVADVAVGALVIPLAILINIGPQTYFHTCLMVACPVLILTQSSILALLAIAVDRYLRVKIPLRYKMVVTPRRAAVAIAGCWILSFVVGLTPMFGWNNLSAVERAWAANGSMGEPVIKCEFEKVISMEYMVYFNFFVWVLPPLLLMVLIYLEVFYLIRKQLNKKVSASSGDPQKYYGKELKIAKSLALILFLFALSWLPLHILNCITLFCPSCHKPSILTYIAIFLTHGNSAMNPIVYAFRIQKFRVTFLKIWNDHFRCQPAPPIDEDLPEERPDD

T1 sequence (P29274 whole entry): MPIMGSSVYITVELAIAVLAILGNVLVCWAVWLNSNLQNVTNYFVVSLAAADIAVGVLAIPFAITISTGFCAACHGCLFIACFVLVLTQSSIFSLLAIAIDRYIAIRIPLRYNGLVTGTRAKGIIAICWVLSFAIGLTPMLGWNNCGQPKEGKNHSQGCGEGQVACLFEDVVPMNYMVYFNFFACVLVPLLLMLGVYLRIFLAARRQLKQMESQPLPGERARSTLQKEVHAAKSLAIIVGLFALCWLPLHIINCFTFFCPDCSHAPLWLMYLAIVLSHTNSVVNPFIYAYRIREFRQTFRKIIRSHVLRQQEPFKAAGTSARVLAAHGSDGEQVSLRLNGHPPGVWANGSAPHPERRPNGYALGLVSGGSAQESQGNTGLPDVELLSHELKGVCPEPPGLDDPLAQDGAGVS

Row | Ki [1] [nM] | selectivity (A1/A2a) [1] | Ki (HA1 adenosine receptor) [nM] | SMILES
1 | 39.8 | 7.6 | 304 | Nc1cc(C(=O)N2CC=C(c3ccccc3)CC2)cc2nc(-c3ccc(Cl)o3)nn12 [Example 263, [5-Amino-2-(5-chloro-furan-2-yl)-[1,2,4]triazolo[1,5-a]pyridin-7-yl]-(4-phenyl-3,6-dihydro-2H-pyridin-1-yl)-methanone]
2 | 6.5 | 42.7 | 277 | CCN(C)C(=O)c1cc(N)n2nc(-c3ccc(Br)o3)nc2c1 [Example 264, 5-Amino-2-(5-bromo-furan-2-yl)-[1,2,4]triazolo[1,5-a]pyridine-7-carboxylic acid ethyl-methyl-amide]
3 | 7.4 | 76.2 | 564 | Nc1cc(C(=O)N2CC=CC2)cc2nc(-c3ccc(Br)o3)nn12 [Example 265, [5-Amino-2-(5-bromo-furan-2-yl)-[1,2,4]triazolo[1,5-a]pyridin-7-yl]-(2,5-dihydro-pyrrol-1-yl)-methanone]
4 | 3.1 | 79.4 | 246 | C#CCN(C)C(=O)c1cc(N)n2nc(-c3ccc(Br)o3)nc2c1 [Example 266, 5-Amino-2-(5-bromo-furan-2-yl)-[1,2,4]triazolo[1,5-a]pyridine-7-carboxylic acid methyl-prop-2-ynyl-amide]
5 | 4.3 | 42.0 | 181 | C=CCN(C)C(=O)c1cc(N)n2nc(-c3ccc(Br)o3)nc2c1 [Example 267, 5-Amino-2-(5-bromo-furan-2-yl)-[1,2,4]triazolo[1,5-a]pyridine-7-carboxylic acid allyl-methyl-amide]
6 | 2.7 | 40.9 | 110 | CC(C)N(C)C(=O)c1cc(N)n2nc(-c3ccc(Br)o3)nc2c1 [Example 269, 5-Amino-2-(5-bromo-furan-2-yl)-[1,2,4]triazolo[1,5-a]pyridine-7-carboxylic acid isopropyl-methyl-amide]
7 | 6.5 | 22.9 | 149 | CCCCN(C)C(=O)c1cc(N)n2nc(-c3ccc(Br)o3)nc2c1 [Example 271, 5-Amino-2-(5-bromo-furan-2-yl)-[1,2,4]triazolo[1,5-a]pyridine-7-carboxylic acid butyl-methyl-amide]
8 | 2.2 | 36.8 | 81 | CCN(C(=O)c1cc(N)n2nc(-c3ccc(Br)o3)nc2c1)C(C)C [Example 272, 5-Amino-2-(5-bromo-furan-2-yl)-[1,2,4]triazolo[1,5-a]pyridine-7-carboxylic acid ethyl-isopropyl-amide]
9 | 3.9 | 64.4 | 251 | CC1C=CC(C)N1C(=O)c1cc(N)n2nc(-c3ccc(Br)o3)nc2c1 (stereo not drawn) [Example 273, [5-Amino-2-(5-bromo-furan-2-yl)-[1,2,4]triazolo[1,5-a]pyridin-7-yl]-(2,5-dimethyl-2,5-dihydro-pyrrol-1-yl)-methanone]
10 | 2.8 | 41.6 | 116 | C=CCN(CC=C)C(=O)c1cc(N)n2nc(-c3ccc(Br)o3)nc2c1 [Example 274, 5-Amino-2-(5-bromo-furan-2-yl)-[1,2,4]triazolo[1,5-a]pyridine-7-carboxylic acid diallylamide]
11 | 5.4 | 38.7 | 209 | CC1CCC(C)N1C(=O)c1cc(N)n2nc(-c3ccc(Br)o3)nc2c1 (stereo not drawn) [Example 275, [5-Amino-2-(5-bromo-furan-2-yl)-[1,2,4]triazolo[1,5-a]pyridin-7-yl]-(2,5-dimethyl-pyrrolidin-1-yl)-methanone]
12 | 10.1 | 22.6 | 229 | CC(C)N(C(=O)c1cc(N)n2nc(-c3ccc(Br)o3)nc2c1)C(C)C [Example 276, 5-Amino-2-(5-bromo-furan-2-yl)-[1,2,4]triazolo[1,5-a]pyridine-7-carboxylic acid diisopropylamide]
13 | 3.2 | 40.3 | 129 | CCCCN(CC)C(=O)c1cc(N)n2nc(-c3ccc(Br)o3)nc2c1 [Example 277, 5-Amino-2-(5-bromo-furan-2-yl)-[1,2,4]triazolo[1,5-a]pyridine-7-carboxylic acid butyl-ethyl-amide]
14 | 5.6 | 16.8 | 94.3 | CCCCCN(C)C(=O)c1cc(N)n2nc(-c3ccc(Br)o3)nc2c1 [Example 278, 5-Amino-2-(5-bromo-furan-2-yl)-[1,2,4]triazolo[1,5-a]pyridine-7-carboxylic acid methyl-pentyl-amide]
15 | 124 | 8.5 | 1060 | CN(C)CCN(C)C(=O)c1cc(N)n2nc(-c3ccc(Br)o3)nc2c1 [Example 279, 5-Amino-2-(5-bromo-furan-2-yl)-[1,2,4]triazolo[1,5-a]pyridine-7-carboxylic acid (2-dimethylamino-ethyl)-methyl-amide]
16 | 83.7 | 51.9 | 4340 | Nc1cc(C(=O)N2CC=CC2)cc2nc(-c3nccs3)nn12 [Example 281, (5-Amino-2-thiazol-2-yl-[1,2,4]triazolo[1,5-a]pyridin-7-yl)-(2,5-dihydro-pyrrol-1-yl)-methanone]
17 | 85.2 | 48.5 | 4130 | C#CCN(C)C(=O)c1cc(N)n2nc(-c3nccs3)nc2c1 [Example 282, 5-Amino-2-thiazol-2-yl-[1,2,4]triazolo[1,5-a]pyridine-7-carboxylic acid methyl-prop-2-ynyl-amide]
18 | 116 | 27.0 | 3130 | C=CCN(C)C(=O)c1cc(N)n2nc(-c3nccs3)nc2c1 [Example 283, 5-Amino-2-thiazol-2-yl-[1,2,4]triazolo[1,5-a]pyridine-7-carboxylic acid allyl-methyl-amide]
19 | 132 | 29.5 | 3890 | CCCN(C)C(=O)c1cc(N)n2nc(-c3nccs3)nc2c1 [Example 284, 5-Amino-2-thiazol-2-yl-[1,2,4]triazolo[1,5-a]pyridine-7-carboxylic acid methyl-propyl-amide]
20 | 83.5 | 32.6 | 2720 | CC(C)N(C)C(=O)c1cc(N)n2nc(-c3nccs3)nc2c1 [Example 285, 5-Amino-2-thiazol-2-yl-[1,2,4]triazolo[1,5-a]pyridine-7-carboxylic acid isopropyl-methyl-amide]
21 | 32.4 | 91.8 | 2970 | CC1CCCN1C(=O)c1cc(N)n2nc(-c3nccs3)nc2c1 (stereo not drawn) [Example 286, (5-Amino-2-thiazol-2-yl-[1,2,4]triazolo[1,5-a]pyridin-7-yl)-(2-methyl-pyrrolidin-1-yl)-methanone]
22 | 142 | 15.4 | 2190 | CCCCN(C)C(=O)c1cc(N)n2nc(-c3nccs3)nc2c1 [Example 287, 5-Amino-2-thiazol-2-yl-[1,2,4]triazolo[1,5-a]pyridine-7-carboxylic acid butyl-methyl-amide]
23 | 66.6 | 21.0 | 1400 | CCN(C(=O)c1cc(N)n2nc(-c3nccs3)nc2c1)C(C)C [Example 288, 5-Amino-2-thiazol-2-yl-[1,2,4]triazolo[1,5-a]pyridine-7-carboxylic acid ethyl-isopropyl-amide]
24 | 55.3 | 42.0 | 2320 | Nc1cc(C(=O)N2CCSC2)cc2nc(-c3nccs3)nn12 [Example 289, (5-Amino-2-thiazol-2-yl-[1,2,4]triazolo[1,5-a]pyridin-7-yl)-thiazolidin-3-yl-methanone]
25 | 57.6 | 22.2 | 1280 | C=CCN(CC=C)C(=O)c1cc(N)n2nc(-c3nccs3)nc2c1 [Example 290, 5-Amino-2-thiazol-2-yl-[1,2,4]triazolo[1,5-a]pyridine-7-carboxylic acid diallylamide]
26 | 89.5 | 17.2 | 1540 | CCCCN(CC)C(=O)c1cc(N)n2nc(-c3nccs3)nc2c1 [Example 291, 5-Amino-2-thiazol-2-yl-[1,2,4]triazolo[1,5-a]pyridine-7-carboxylic acid butyl-ethyl-amide]
27 | 108 | 13.9 | 1510 | CCCCCN(C)C(=O)c1cc(N)n2nc(-c3nccs3)nc2c1 [Example 292, 5-Amino-2-thiazol-2-yl-[1,2,4]triazolo[1,5-a]pyridine-7-carboxylic acid methyl-pentyl-amide]
28 | 24.1 | 21.9 | 528 | CN(C)C(=O)c1cc(N)n2nc(-c3ccc(Br)o3)nc2c1 [Example 293, 5-Amino-2-(5-bromo-furan-2-yl)-[1,2,4]triazolo[1,5-a]pyridine-7-carboxylic acid dimethylamide]
29 | 4.1 | 35.0 | 143 | Nc1cc(C(=O)N2CC=CCC2)cc2nc(-c3ccc(Br)o3)nn12 [Example 294, [5-Amino-2-(5-bromo-furan-2-yl)-[1,2,4]triazolo[1,5-a]pyridin-7-yl]-(3,6-dihydro-2H-pyridin-1-yl)-methanone]
30 | 1.7 | 31.0 | 52.7 | Nc1cc(C(=O)N2CCCCCC2)cc2nc(-c3ccc(Br)o3)nn12 [Example 296]
